The nature of data set [1]: Solubility in gastric juice or intestinal juice model fluid (precipitation method using DMSO). In kind it is physicochemical. The note with it: room temperature. How it is done:
Solubility in Gastric Juice or Intestinal Juice Model Fluid
Measurement was performed by a precipitation method using DMSO. Specifically, each of the dimethyl sulfoxide (DMSO) solutions of the compounds was individually added to 1st fluid for Disintegration Test of Japanese Pharmacopoeia (pH: 1.2) or 2nd fluid for Disintegration Test of Japanese Pharmacopoeia (pH: 6.8), and the mixtures were stirred by shaking at room temperature for 24 hours. Subsequently, insoluble substances in each mixture were removed by filtration, and the UV absorption of each filtrate was measured. The obtained values were individually applied to the calibration curves of the compounds prepared in advance to calculate the concentrations of the compounds dissolved (μg/mL).

The mark [2] stands for this setting: pH 1.2, simulated gastric fluid, kinetic from dmso stock, 1st fluid for Disintegration Test of Japanese Pharmacopoeia (pH: 1.2), read-out: Solubility (μg/mL) 1st fluid.
[3] abbreviates: pH 6.8, kinetic from dmso stock, 2nd fluid for Disintegration Test of Japanese Pharmacopoeia (pH: 6.8), read-out: Solubility (μg/mL) 2nd fluid.

Converted amounts (≈) assume the structure as drawn. Read-outs that look alike come from different tables or passages of the source. Bounds are passed on as bounds.

The term melting point denotes the temperature, or range, at which the solid turns liquid.

As for `COc1cc(-c2c[nH]c(-c3ccc(C(F)(F)F)nc3)n2)ccc1OCc1ccc(C(F)(F)F)cn1` [Example 97], the melting point lay in the range of 201 to 203 °C. Moreover, the solubility at 24 h in data set [1] (setting [2]) is 15.2 µg/mL (≈ 30.7 µM). In addition, the solubility at 24 h in data set [1] (setting [3]) amounted to 2.2 µg/mL (≈ 4.45 µM).
On the same counts, the results for `COc1cc(-c2nc(-c3ccc(Cl)nc3)[nH]c2C)ccc1OCc1ccc(C(F)(F)F)cn1` [Example 30] are 228 to 230 °C (dec.), 24 µg/mL (≈ 50.5 µM) and 0.6 µg/mL (≈ 1.26 µM).
On the same counts, the results for `COc1cc(OCc2ccc(Br)cc2F)ccc1-c1c[nH]c(-c2ccc(F)nc2)n1` [Example 126] are 172 to 176 °C, 7.1 µg/mL (≈ 15 µM) and 5.6 µg/mL (≈ 11.9 µM).
Taken in the same sequence, the figures for `COc1cc(OCc2cccc(C#N)n2)ccc1-c1c[nH]c(-c2ccc(Cl)nc2)n1` [Example 60] were 235 to 239 °C (dec.), 8.8 µg/mL (≈ 21.1 µM) and 1.1 µg/mL (≈ 2.63 µM).
`COc1cc(OCc2ncc(Br)cc2F)ccc1-c1cnc(-c2ccc(Cl)nc2)[nH]1` [Example 105] showed a melting point of 219 to 225 °C. Further, the solubility at 24 h in data set [1] (setting [2]) was 27.6 µg/mL (≈ 56.4 µM). Also, the solubility at 24 h in data set [1] (setting [3]) is below 0.3 µg/mL.
On the same counts, the results for `COc1cc(OCc2cncc(C(F)(F)F)c2)ccc1-c1cnc(-c2ccc(F)nc2)[nH]1` [Example 137] are 210 to 212 °C (dec.), 39.9 µg/mL (≈ 89.8 µM) and 36.1 µg/mL (≈ 81.2 µM).
`COc1cc(OCc2ccc(C(F)(F)F)nc2)ccc1-c1cn(C)c(-c2ccc(F)nc2)n1` [Example 163] returned a melting point of 163 to 165 °C. Further, the solubility at 24 h in data set [1] (setting [2]) was above 92 µg/mL. Further, the solubility at 24 h in data set [1] (setting [3]) was 1.4 µg/mL (≈ 3.05 µM).
On the same counts, the results for `COc1cc(OCc2ccc(C(F)(F)F)cn2)ccc1-c1c(Cl)nc(-c2ccc(F)nc2)n1C` [Example 312] are 142 to 144 °C, 23.6 µg/mL (≈ 47.9 µM) and below 0.4 µg/mL.
For `COc1cc(OCc2ccc(C(F)(F)F)nc2)c(C)cc1-c1[nH]c(C2CCC(F)(F)CC2)nc1Br` [Example 187], the melting point fell in the range of 195 to 196 °C. For the same compound, the solubility at 24 h in data set [1] (setting [2]) was 75.6 µg/mL (≈ 135 µM). Moreover, the solubility at 24 h in data set [1] (setting [3]) was below 0.4 µg/mL.
On the same counts, the results for `COc1cc(-c2c[nH]c(-c3ccccn3)n2)ccc1OCc1ccc(C(F)(F)F)cn1` [Example 87] are 217 to 220 °C, 39.4 µg/mL (≈ 92.4 µM) and 0.7 µg/mL (≈ 1.64 µM).
Taken in the same sequence, the figures for `COc1cc(OCc2cc(C(F)(F)F)ccn2)ccc1-c1c[nH]c(-c2ccc(Cl)nc2)n1` [Example 37] were 216 to 217 °C, 5.6 µg/mL (≈ 12.2 µM) and 0.6 µg/mL (≈ 1.3 µM).
The compound `COc1cc(OC(C)c2ccc(C(F)(F)F)cc2)ccc1-c1[nH]c(-c2ccc(F)nc2)nc1Cl` (stereo not drawn) [Example 236] had a melting point of 137 to 146 °C. For the same compound, in data set [1] (setting [2]), the solubility at 24 h was below 0.3 µg/mL. Further, the solubility at 24 h in data set [1] (setting [3]) worked out at 29.9 µg/mL (≈ 60.8 µM).
As for `COc1cc(OC(C)c2ccc(C(F)(F)F)cn2)ccc1-c1[nH]c(-c2ccc(F)nc2)nc1Cl` (stereo not drawn) [Example 240], the melting point lay within 165 to 168 °C. Also, the “Solubility (μg/mL) 1st fluid” value in data set [1] (1st fluid for Disintegration Test of Japanese Pharmacopoeia (pH: 1.2), 24 hours) amounted to 12 µg/mL (≈ 24.3 µM). The “Solubility (μg/mL) 2nd fluid” value in data set [1] (2nd fluid for Disintegration Test of Japanese Pharmacopoeia (pH: 6.8), 24 hours) was below 0.4 µg/mL.
`COc1cc(OCc2ccc(C(F)(F)F)nc2)ccc1-c1[nH]c(C2CCC(F)(F)C2)nc1Cl` (stereo not drawn) [Example 180] displayed a melting point of 172 to 174 °C. Also, in data set [1] (setting [2]), the solubility at 24 h was 89.1 µg/mL (≈ 183 µM). Moreover, the solubility at 24 h in data set [1] (setting [3]) amounted to 0.4 µg/mL (≈ 0.82 µM).
Taken in the same sequence, the figures for `COc1cc(OCc2ccc(C(F)(F)F)cn2)ccc1-c1c[nH]c(-c2ccc(Cl)nc2)n1` [Example 94] were 215 to 217 °C, 8.7 µg/mL (≈ 18.9 µM) and 0.9 µg/mL (≈ 1.95 µM).
